One test deals with Human PDE10 (Homo sapiens (Human), UniProt Q9Y233). Description: Inhibition of Human PDE10 (Example 13, SPA assay). In kind it is biochemical. The note with it: substrate 125 nM H-cGMP; all three compounds tested in the same experiment. As to the method:
(§1) The PDE assay medium consisted of (final concentrations); 50 mM Tris-HCL, pH 7.5; 8.3 mM MgCl2; 1.7 mM EGTA; 0.5 mg/mL bovine serum albumin; and substrate (H-cAMP or H-cGMP). The BSA was lyophilized powder, essentially fatty acid free, ≧96% pure from Sigma (A6003).

Another test deals with PDE10. The note with it: from Soderling and Beavo 2000; read-out: IC50 (50% inhibitory concentration) PDE10; cited from earlier work.
The target in another test is PDE2A (Homo sapiens (Human), UniProt O00408). Description: PDE selectivity SPA assay, PDE2A. Type of test: biochemical. The note with it: substrate 37 nM H-cGMP. As for the experimental part:
as §1

In the next test the target is PDE5A (Homo sapiens (Human), UniProt O76074). Kind of test: PDE selectivity SPA assay, PDE5A. In kind it is biochemical. The note with it: substrate 37 nM H-cGMP. As to the method:
as §1

The target of another test is bovine PDE6 (Bos taurus, UniProt P11541+P23439). Kind of test: PDE selectivity assay, PDE6. Type of test: biochemical. As to the method:
as §1

The next test concerns the target PDE10A2 (Homo sapiens (Human), UniProt Q9Y233). Description: PDE selectivity SPA assay, PDE10A2. The note with it: Table 1 selectivity profile. Type of test: biochemical. As to the method:
as §1

IC50 data for four molecules are collected here from patent publication US9493447B2, “Optically active PDE10 inhibitor” (OMEROS CORPORATION, priority 2014, dated 2016).

Sequence of Human PDE10 (Q9Y233 267-1055): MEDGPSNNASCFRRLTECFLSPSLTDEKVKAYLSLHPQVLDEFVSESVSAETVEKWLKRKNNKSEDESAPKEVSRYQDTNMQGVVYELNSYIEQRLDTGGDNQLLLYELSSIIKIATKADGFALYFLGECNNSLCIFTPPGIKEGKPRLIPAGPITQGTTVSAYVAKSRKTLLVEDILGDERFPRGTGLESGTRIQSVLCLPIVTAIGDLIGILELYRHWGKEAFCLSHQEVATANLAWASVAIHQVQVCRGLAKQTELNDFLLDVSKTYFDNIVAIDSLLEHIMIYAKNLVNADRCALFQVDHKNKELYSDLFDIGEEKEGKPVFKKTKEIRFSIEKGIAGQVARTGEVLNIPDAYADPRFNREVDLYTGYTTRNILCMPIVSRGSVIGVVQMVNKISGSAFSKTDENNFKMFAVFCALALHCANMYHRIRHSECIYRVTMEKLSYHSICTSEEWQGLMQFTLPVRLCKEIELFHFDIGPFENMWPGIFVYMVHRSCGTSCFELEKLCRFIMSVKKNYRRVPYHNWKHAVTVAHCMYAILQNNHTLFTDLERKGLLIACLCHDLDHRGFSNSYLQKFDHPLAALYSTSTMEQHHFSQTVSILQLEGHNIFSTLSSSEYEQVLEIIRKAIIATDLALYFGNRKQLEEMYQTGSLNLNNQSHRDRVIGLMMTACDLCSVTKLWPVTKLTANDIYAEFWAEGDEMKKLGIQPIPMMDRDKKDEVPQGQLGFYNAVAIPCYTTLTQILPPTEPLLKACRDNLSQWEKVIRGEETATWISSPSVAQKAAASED
Sequence of bovine PDE6 (P11541 2-859 limits assumed): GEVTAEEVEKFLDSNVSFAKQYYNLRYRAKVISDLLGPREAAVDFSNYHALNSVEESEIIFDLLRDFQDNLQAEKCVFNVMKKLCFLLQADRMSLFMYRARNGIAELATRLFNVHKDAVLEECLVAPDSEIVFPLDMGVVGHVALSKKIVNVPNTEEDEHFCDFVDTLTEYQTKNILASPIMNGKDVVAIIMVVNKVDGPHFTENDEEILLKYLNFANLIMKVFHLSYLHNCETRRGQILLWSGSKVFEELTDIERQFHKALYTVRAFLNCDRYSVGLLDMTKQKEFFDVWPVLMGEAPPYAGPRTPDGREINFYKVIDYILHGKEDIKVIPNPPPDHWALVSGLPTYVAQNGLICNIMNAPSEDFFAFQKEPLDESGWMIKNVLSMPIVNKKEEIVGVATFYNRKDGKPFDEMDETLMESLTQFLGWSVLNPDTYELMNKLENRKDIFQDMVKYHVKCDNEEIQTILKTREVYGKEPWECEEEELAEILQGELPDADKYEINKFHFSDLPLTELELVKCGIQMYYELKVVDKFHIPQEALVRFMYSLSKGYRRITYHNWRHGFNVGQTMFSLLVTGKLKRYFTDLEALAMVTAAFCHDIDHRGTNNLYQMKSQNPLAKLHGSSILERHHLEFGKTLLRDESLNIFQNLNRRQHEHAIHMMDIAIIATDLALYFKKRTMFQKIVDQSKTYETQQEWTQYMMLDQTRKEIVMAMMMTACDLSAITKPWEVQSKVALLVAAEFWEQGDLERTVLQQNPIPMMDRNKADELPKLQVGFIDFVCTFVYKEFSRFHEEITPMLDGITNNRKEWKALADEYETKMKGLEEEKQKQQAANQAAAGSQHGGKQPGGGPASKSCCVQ
Sequence of bovine PDE6 (P23439 2-853 limits assumed): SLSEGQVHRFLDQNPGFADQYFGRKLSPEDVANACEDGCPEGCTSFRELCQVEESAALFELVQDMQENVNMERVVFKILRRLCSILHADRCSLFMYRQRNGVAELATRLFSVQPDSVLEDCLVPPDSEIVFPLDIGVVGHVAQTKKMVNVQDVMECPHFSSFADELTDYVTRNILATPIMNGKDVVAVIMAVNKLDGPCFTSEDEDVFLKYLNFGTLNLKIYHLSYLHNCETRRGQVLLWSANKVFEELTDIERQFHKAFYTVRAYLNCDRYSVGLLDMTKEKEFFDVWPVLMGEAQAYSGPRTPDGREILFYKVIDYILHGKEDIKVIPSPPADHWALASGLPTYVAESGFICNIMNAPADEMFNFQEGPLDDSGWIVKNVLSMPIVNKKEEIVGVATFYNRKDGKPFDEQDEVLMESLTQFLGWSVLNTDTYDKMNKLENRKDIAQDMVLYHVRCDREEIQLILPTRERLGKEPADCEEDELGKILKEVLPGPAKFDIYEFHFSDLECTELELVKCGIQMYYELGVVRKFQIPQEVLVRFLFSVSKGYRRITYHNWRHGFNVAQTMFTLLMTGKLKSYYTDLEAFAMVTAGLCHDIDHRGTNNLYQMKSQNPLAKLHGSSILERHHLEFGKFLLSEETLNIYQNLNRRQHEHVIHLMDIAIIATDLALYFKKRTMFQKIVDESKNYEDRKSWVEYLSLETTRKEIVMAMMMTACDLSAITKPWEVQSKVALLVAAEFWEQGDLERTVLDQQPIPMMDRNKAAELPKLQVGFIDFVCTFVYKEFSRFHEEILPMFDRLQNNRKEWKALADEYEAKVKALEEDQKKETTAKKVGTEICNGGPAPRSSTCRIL
Sequence of PDE2A (O00408 whole entry): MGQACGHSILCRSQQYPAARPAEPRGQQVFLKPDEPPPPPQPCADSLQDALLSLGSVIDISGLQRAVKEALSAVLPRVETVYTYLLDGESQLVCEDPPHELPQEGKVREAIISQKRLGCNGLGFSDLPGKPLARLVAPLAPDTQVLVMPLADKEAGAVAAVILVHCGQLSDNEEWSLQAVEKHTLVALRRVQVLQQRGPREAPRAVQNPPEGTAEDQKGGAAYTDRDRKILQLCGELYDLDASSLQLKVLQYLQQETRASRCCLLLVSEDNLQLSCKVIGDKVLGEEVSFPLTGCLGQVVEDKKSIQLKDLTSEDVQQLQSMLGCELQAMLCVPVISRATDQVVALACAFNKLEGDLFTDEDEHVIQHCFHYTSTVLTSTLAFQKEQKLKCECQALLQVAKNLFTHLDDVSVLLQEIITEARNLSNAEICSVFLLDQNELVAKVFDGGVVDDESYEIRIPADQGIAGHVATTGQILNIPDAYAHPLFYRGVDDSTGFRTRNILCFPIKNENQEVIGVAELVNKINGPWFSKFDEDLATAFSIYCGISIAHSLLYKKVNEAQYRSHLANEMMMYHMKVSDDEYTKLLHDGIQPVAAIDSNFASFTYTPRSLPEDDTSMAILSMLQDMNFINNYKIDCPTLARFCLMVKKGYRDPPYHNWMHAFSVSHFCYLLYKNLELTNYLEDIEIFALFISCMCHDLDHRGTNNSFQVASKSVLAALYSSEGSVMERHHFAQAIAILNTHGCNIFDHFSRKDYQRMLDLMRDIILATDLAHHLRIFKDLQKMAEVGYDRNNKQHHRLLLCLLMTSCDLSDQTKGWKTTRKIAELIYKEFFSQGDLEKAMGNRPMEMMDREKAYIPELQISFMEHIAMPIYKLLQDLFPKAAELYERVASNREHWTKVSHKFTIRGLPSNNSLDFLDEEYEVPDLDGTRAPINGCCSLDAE
Sequence of PDE10A2 (Q9Y233 267-1055): as the sequence (Q9Y233 267-1055) above

As for `CCO[C@@H](C(=O)c1ccc(-c2cc(OC)c(Cl)c(OC)c2)o1)c1ccc(-c2nnc(C)s2)cc1` [Compound 3001], the IC50 against Human PDE10 amounted to 5.8 nM.

`CCO[C@H](C(=O)c1ccc(-c2cc(OC)c(Cl)c(OC)c2)o1)c1ccc(-c2nnc(C)s2)cc1` [Compound 2001, (S)-1-(5-(4-chloro-3,5-dimethoxyphenyl)furan-2-yl)-2-ethoxy-2-(4-(5-methyl-1,3,4-thiadiazol-2-yl)phenyl)ethanone] showed an IC50 at Human PDE10 of 0.44 nM.

`CC(C)Cn1c(=O)n(C)c(=O)c2[nH]cnc21` [IBMX]: the IC50 with PDE10 is 2600 nM.

As to `CCOC(C(=O)c1ccc(-c2cc(OC)c(Cl)c(OC)c2)o1)c1ccc(-c2nnc(C)s2)cc1` (racemic) [Compound 1001, 1-(5-(4-chloro-3,5-dimethoxyphenyl)furan-2-yl)-2-ethoxy-2-(4-(5-methyl-1,3,4-thiadiazol-2-yl)phenyl)ethanone], the IC50 against PDE2A was 545 nM; against PDE5A, 5740 nM; against bovine PDE6 it was over 3000 nM; at PDE10A2 it was 0.62 nM; on Human PDE10, 0.62 nM.
